The source made the active and inactive calls. No cut-off for these calls is given here.
Columns and labels:
[1] = AUC (0 to infinity) in mouse at 15 mg/kg, po measured upto 24 hrs by LC-MS/MS analysis; format: ADME, organism-based; settings: in vivo
[2] = Oral bioavailability in mouse at 15 mg/kg measured upto 24 hrs by LC-MS/MS analysis; format: ADME, organism-based; settings: in vivo
MCF7 [3] = test: Induction of apoptosis in human MCF7 cells assessed as viable cells at 20 nM measured after 48 hrs by annexin-FITC and propidium iodide staining based flow cytometry analysis (reference value: 94.69%); format: functional; settings: read-out: Activity
[4] = Toxicity in Balb/C nude mouse assessed as abnormalities in kidney at 7.5 to 15 mg/kg, ip measured after 14 days by H and E staining based analysis; format: organism-based; settings: in vivo, 336 h, dose 7.5-15 mg/kg, time 14 day
[5] = Half life in mouse at 3 mg/kg, iv measured upto 24 hrs by LC-MS/MS analysis; format: ADME, organism-based; settings: in vivo
[6] = Toxicity in Balb/C nude mouse xenografted with A549/Taxol assessed as effect on kidney at 15 mg/kg, ip measured after 14 days by H and E staining based analysis; format: organism-based, A549/TR; settings: in vivo, 336 h, time 14 day
Sus scrofa = organism: Sus scrofa; test: (§1) Inhibition of porcine brain tubulin polymerization; settings: dose 0.4-12 µM
[7] = as §1; design: species or system Sus scrofa
MCF7 [8] = test: Induction of apoptosis in human MCF7 cells assessed as late apoptotic cells at 20 nM measured after 48 hrs by annexin-FITC and propidium iodide staining based flow cytometry analysis (reference value: 3.93%); format: functional
MCF7 [9] = test: Induction of apoptosis in human MCF7 cells assessed as necrotic cells at 40 nM measured after 48 hrs by annexin-FITC and propidium iodide staining based flow cytometry analysis (reference value: 0.18%); format: functional
MCF7 [10] = test: Induction of apoptosis in human MCF7 cells assessed as upregulation of bad protein level by Western blot analysis; format: functional, cell-based; settings: dose 10-40 nM
MDA-MB-231 [11] = test: Antitumor activity against human MDA-MB-231 cells xenografted in BALB/c nude mouse model assessed as inhibition of tumor growth weight administered as IP dose measured after 14 days; format: functional; settings: dose 7.5-15 mg/kg, time 14.0 day
MCF7 [12] = test: Antiproliferative activity against human MCF7 cells assessed as inhibition of cell growth measured after 48 hrs by MTT assay; format: functional, cell-based; settings: MCF7, 48 h
MCF7 [13] = test: Induction of apoptosis in human MCF7 cells assessed as necrotic cells at 10 nM measured after 48 hrs by annexin-FITC and propidium iodide staining based flow cytometry analysis (reference value: 0.18%); format: functional
[14] = Toxicity in Balb/C nude mouse assessed as abnormalities in heart at 7.5 to 15 mg/kg, ip measured after 14 days by H and E staining based analysis; format: organism-based; settings: in vivo, 336 h, dose 7.5-15 mg/kg, time 14 day
MDA-MB-231 [15] = test: Antitumor activity against human MDA-MB-231 cells xenografted in BALB/c nude mouse model assessed as increase in tumor necrosis at 7.5 to 15 mg/kg, ip measured after 14 days by H and E staining based analysis; format: functional, organism-based; settings: dose 7.5-15 mg/kg, time 14.0 day
[16] = Tmax in mouse at 15 mg/kg, po measured upto 24 hrs by LC-MS/MS analysis; format: ADME, organism-based; settings: in vivo
MCF7 [17] = test: Induction of apoptosis in human MCF7 cells assessed as upregulation of PARP-1 protein level by Western blot analysis; format: functional, cell-based; settings: dose 10-40 nM
MDA-MB-231 [18] = test: Downregulation of vimentin expression in human MDA-MB-231 cells at 5 to 40 nM by Western blot analysis; format: functional, cell-based; settings: dose 5-40 nM
[19] = Toxicity in Balb/C nude mouse assessed as abnormalities in spleen at 7.5 to 15 mg/kg, ip measured after 14 days by H and E staining based analysis; format: organism-based; settings: in vivo, 336 h, dose 7.5-15 mg/kg, time 14 day
[20] = Antiproliferative activity against human CDDP-resistant A549 cell assessed as inhibition of cell growth measured after 48 hrs by MTT assay; format: functional, cell-based
[21] = Resistance index, ratio of IC50 for antiproliferative activity against human CDDP-resistant A549 cell to IC50 for antiproliferative activity against human A549 cells; format: functional
MCF7 [22] = test: Induction of apoptosis in human MCF7 cells assessed as upregulation of p53 protein level by Western blot analysis; format: functional, cell-based; settings: dose 10-40 nM
[23] = Toxicity in ICR mouse assessed as lethal dose administered as IP dose measured upto 14 days; settings: in vivo, time < 14 day
[24] = Acute toxicity in ICR mouse assessed as survival rate at 150 mg/kg, ip measured after 14 days relative to control; format: organism-based; settings: in vivo, time 14 day
MCF7 [25] = test: Induction of apoptosis in human MCF7 cells assessed as viable cells at 40 nM measured after 48 hrs by annexin-FITC and propidium iodide staining based flow cytometry analysis (reference value: 94.69%); format: functional; settings: read-out: Activity
MCF7 [26] = test: Upregulation of cyclin-B1 expression level in human MCF7 cells at 1 to 10 nM by Western blot analysis; format: functional, cell-based; settings: dose 1-10 nM
[27] = Toxicity in Balb/C nude mouse assessed as abnormalities in lung at 7.5 to 15 mg/kg, ip measured after 14 days by H and E staining based analysis; format: organism-based; settings: in vivo, 336 h, dose 7.5-15 mg/kg, time 14 day
[28] = Antiproliferative activity against cisplatin resistant human A2780/CDDP cells assessed as inhibition of cell growth measured after 48 hrs by MTT assay; format: functional, cell-based
MCF7 [29] = test: Upregulation of CDK1 expression level in human MCF7 cells at 1 to 10 nM by Western blot analysis; format: functional, cell-based; settings: dose 1-10 nM
[30] = Acute toxicity in ICR mouse assessed as survival rate at 300 mg/kg, ip measured after 14 days relative to control; format: organism-based; settings: in vivo, time 14 day
MCF7 [31] = test: Upregulation of histone H3 phosphorylation level in human MCF7 cells at 1 to 10 nM by Western blot analysis; format: functional, cell-based; settings: dose 1-10 nM
MDA-MB-231 [32] = test: Inhibition of cell migration in human MDA-MB-231 cells assessed as delay in wound healing at 10 to 20 nM by inverted microscopy based analysis; format: functional; settings: dose 10-20 nM
MCF7 [33] = test: Induction of apoptosis in human MCF7 cells assessed as early apoptotic cells at 20 nM measured after 48 hrs by annexin-FITC and propidium iodide staining based flow cytometry analysis (reference value: 1.20%); format: functional
MCF7 [34] = test: Antiproliferative activity against katanin knockdown human MCF7 cells assessed as inhibition of cell growth at 0.2 to 25 nM measured after 48 hrs by MTT assay; format: functional, cell-based; settings: dose 0.2-25 nM
[35] = Resistance index, ratio of IC50 for antiproliferative activity against cisplatin resistant human A2780/CDDP cells to IC50 for antiproliferative activity against human A2780 cells; format: functional
MCF7 [36] = test: Induction of cell cycle arrest in human MCF7 cells assessed as accumulation of cells at G2/M phase at 10 nM measured after 24 hrs by propidium iodide staining based flow cytometry analysis (reference value: 26%); format: functional
[37] = Resistance index, ratio of IC50 for antiproliferative activity against human A549/Taxol cells to IC50 for antiproliferative activity against human A549 cells; format: functional
[38] = AUC (0 to infinity) in mouse at 3 mg/kg, iv measured upto 24 hrs by LC-MS/MS analysis; format: ADME, organism-based; settings: in vivo
HUVEC = test: Anti-angiogenesis activity in human HUVEC cells assessed as disruption of capillary tube formation at 60 nM incubated for 6 hrs by inverted microscopic analysis relative to control; format: functional
A2780/Taxol = test: cells; settings: Homo sapiens, 48 h

SMILES: COc1cc(-n2cnc3ccc(-c4ccc(C)c(N)c4)nc32)cc(OC)c1OC
- AUC(0-inf) [1]: 1340 ng·h/mL
- bioavailability [2]: 40%
- viability at 0.02 µM (MCF7 [3]): 46.6%
- Activity [4]: Non-Toxic
- half-life [5]: 63.6 min
- Activity [6]: Non-Toxic
- inhibition (Sus scrofa): Dose-Dependent Effect
- IC50 [7]: 2000 nM
- Activity (MCF7 [8]): 21.54%
- Activity (MCF7 [9]): 0.36%
- Activity (MCF7 [10]): Dose-Dependent Effect
- Activity (MDA-MB-231 [11]): Dose-Dependent Effect
- IC50 (MCF7 [12]): 1 nM
- Activity (MCF7 [13]): 0.41%
- Activity [14]: Non-Toxic
- Activity (MDA-MB-231 [15]): Active
- Tmax [16]: 8.4 min
- Activity (MCF7 [17]): Dose-Dependent Effect
- Activity (MDA-MB-231 [18]): Active
- Activity [19]: Non-Toxic
- IC50 [20]: 2 nM
- Ratio IC50 [21]: 1.81
- Activity (MCF7 [22]): Dose-Dependent Effect
- LD50 at 336 h [23]: 150 mg/kg
- survival at 336 h [24]: 50%
- viability at 0.04 µM (MCF7 [25]): 40.1%
- Activity (MCF7 [26]): Active
- Activity [27]: Non-Toxic
- IC50 [28]: 4.2 nM
- Activity (MCF7 [29]): Active
- survival at 336 h [30]: 0%
- Activity (MCF7 [31]): Active
- inhibition (MDA-MB-231 [32]): Active
- Activity (MCF7 [33]): 31.28%
- Activity (MCF7 [34]): inactive
- Ratio IC50 [35]: 1.35
- Activity (MCF7 [36]): ~67%
- Ratio IC50 [37]: 1.45
- AUC(0-inf) [38]: 668 ng·h/mL
- Activity (HUVEC): 100%
- IC50 (A2780/Taxol): 4.8 nM

From ChEMBL document CHEMBL5523751, “Discovery of Novel Diaryl-Substituted Fused Heterocycles Targeting Katanin and Tubulin with Potent Antitumor and Antimultidrug Resistance Efficacy” (J Med Chem, 2024)
